Where “and” joins values, the source holds several entries; their conditions need not be identical. Equal entries are not always repeated.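 Dose response: 5 concentrations. Exposure: 48 h. Format: 96-well plates. Endpoint: linear interpolation; highest concentration if not reached. TGI marks complete inhibition of growth.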
Assays:
Assay in all cases: NCI anticancer screen, dose series, 48 h
[1] = test system: NCI-H522 lung
[2] = test system: HT29 colon
[3] = test system: EKVX NSCLC
[4] = test system: OVCAR-4 ovarian
[5] = test system: OVCAR-8 ovarian
[6] = test system: OVCAR-5 ovarian
[7] = test system: SR leukemia

SMILES: CCN1CC2=C(NC(=S)NC2c2cc(OC)c(OC)c(OC)c2)/C(=C/c2cc(OC)c(OC)c(OC)c2)C1 (centres undefined)
- TGI [1]: 55.9 µM
- TGI [2]: > 100 µM
- TGI [3]: > 100 µM
- TGI [4]: > 100 µM
- TGI [5]: 61.6 µM
- TGI [6]: > 100 µM

SMILES: COP1(=O)NCc2ncccc2O1 (centres undefined)
- TGI [2]: > 100 µM
- TGI [3]: > 100 µM
- TGI [7]: > 100 µM
- TGI [4]: > 100 µM
- TGI [5]: > 100 µM
- TGI [6]: > 100 µM

SMILES: N=C(N)n1[nH]c2c(c1=O)CCCC2
- TGI [1]: > 100 µM
- TGI [2]: > 100 µM
- TGI [3]: > 100 µM
- TGI [7]: > 100 µM
- TGI [4]: > 100 µM
- TGI [5]: > 100 µM
- TGI [6]: > 100 µM

SMILES: CCCCNC(=O)Nc1c(C(N)=O)c2n(c1C(=O)OCC)CCCCC2
- TGI [2]: > 100 µM
- TGI [3]: > 100 µM
- TGI [7]: > 100 µM
- TGI [4]: > 100 µM
- TGI [5]: > 100 µM

SMILES: O=C(Nc1ccccc1C(=O)O)/C(=C/c1ccccc1)NC(=O)c1ccccc1
- TGI [1]: > 100 µM
- TGI [2]: > 100 µM
- TGI [3]: > 100 µM
- TGI [7]: > 100 µM
- TGI [5]: > 100 µM
- TGI [6]: > 100 µM

SMILES: C=C(C)[C@@]1(O)CCC[C@H]1NC(=O)OC(C)(C)C
- TGI [1]: > 100 µM
- TGI [2]: > 100 µM
- TGI [3]: > 100 µM
- TGI [4]: > 100 µM
- TGI [5]: > 100 µM
- TGI [6]: > 100 µM

SMILES: CC(=O)Nc1cc2c(cc1O)CC[C@@H]1[C@@H]2CC[C@]2(C)[C@@H](O)CC[C@@H]12
- TGI [1]: 81.5 µM
- TGI [2]: > 100 µM
- TGI [3]: > 100 µM
- TGI [7]: > 100 µM
- TGI [4]: > 100 µM
- TGI [5]: > 100 µM
- TGI [6]: > 100 µM

SMILES: CC(=O)OCC12C(OC(C)=O)C[C@@H](C)C3(CC(c4ccoc4)OC3=O)C1CCC(O)C21CO1 (some centres undefined)
- TGI [1]: > 100 µM
- TGI [2]: > 100 µM
- TGI [7]: > 100 µM
- TGI [4]: > 100 µM
- TGI [5]: > 100 µM
- TGI [6]: > 100 µM

SMILES: CCOC(=O)c1cc(C2CCN(Cc3ccccc3)C2=O)c(C(=O)C(=[N+]=[N-])C(C)=O)[nH]1 (centres undefined)
- TGI [2]: > 100 µM
- TGI [3]: > 100 µM
- TGI [7]: > 100 µM
- TGI [4]: > 100 µM
- TGI [5]: > 100 µM
- TGI [6]: > 100 µM

SMILES: Cc1cc2c(cc1C)[n+](=O)c(N1CCN(c3ccc([N+](=O)[O-])cc3)CC1)c(C#N)n2[O-]
- TGI [1]: 88.3 µM
- TGI [2]: > 100 µM
- TGI [3]: > 100 µM
- TGI [4]: > 100 µM
- TGI [5]: 49.8 µM
- TGI [6]: > 100 µM

SMILES: CCN(CC)Cc1nc(C2CCC([N+](=O)[O-])O2)no1 (centres undefined)
- TGI [1]: 31 µM
- TGI [2]: 44.5 µM
- TGI [3]: > 100 µM
- TGI [7]: > 100 µM
- TGI [4]: > 100 µM
- TGI [5]: > 100 µM
- TGI [6]: 84.2 µM

SMILES: Cc1ccc(S(=O)(=O)Oc2ccc(OS(=O)(=O)c3ccc(C)cc3)c3c2C(=O)c2ccccc2C3=O)cc1
- TGI [1]: > 100 µM
- TGI [2]: > 100 µM
- TGI [3]: > 100 µM
- TGI [7]: > 100 µM
- TGI [4]: > 100 µM
- TGI [5]: > 100 µM
- TGI [6]: > 100 µM

SMILES: N#CC1CCN2N=C(c3ccccc3)SC12c1ccccc1 (centres undefined)
- TGI [1]: > 100 µM
- TGI [2]: > 100 µM
- TGI [3]: 97.3 µM
- TGI [7]: > 100 µM
- TGI [4]: > 100 µM
- TGI [5]: > 100 µM
- TGI [6]: > 100 µM

SMILES: COC(=NCCC1=CCCCC1)OC
- TGI [1]: > 100 µM
- TGI [2]: 82.9 µM
- TGI [3]: > 100 µM
- TGI [4]: > 100 µM
- TGI [5]: > 100 µM
- TGI [6]: > 100 µM

SMILES: COc1ccc(C(C2C(=O)N(C)C(=O)N(C)C2=O)C(F)(F)C(=O)N(C)C)cc1 (centres undefined)
- TGI [3]: > 100 µM
- TGI [4]: > 100 µM
- TGI [5]: > 100 µM
- TGI [6]: > 100 µM

SMILES: [N-]=[N+]=Nc1c([N+](=O)[O-])c(Cl)nc2ccccc12
- TGI [1]: 0.866 µM
- TGI [2]: 5.09 µM
- TGI [3]: 7.45 µM
- TGI [4]: 4.75 µM
- TGI [5]: 3.98 µM
- TGI [6]: 5.63 µM

SMILES: COC(=O)/C=C1/N=C(N(C)/N=C/c2ccccc2)NC1=O
- TGI [1]: > 100 µM
- TGI [2]: > 100 µM
- TGI [3]: > 100 µM
- TGI [7]: > 100 µM
- TGI [4]: > 100 µM
- TGI [5]: > 100 µM
- TGI [6]: > 100 µM

SMILES: CC(C)(C)OC(=O)NC(Cc1cnc[nH]1)C(=O)N1CCCC1C(N)=O (centres undefined)
- TGI [1]: > 100 µM
- TGI [2]: > 100 µM
- TGI [3]: > 100 µM
- TGI [7]: > 100 µM
- TGI [4]: > 100 µM
- TGI [5]: > 100 µM
- TGI [6]: > 100 µM

SMILES: O=C1NC(=O)C(C(c2ccc(Cl)cc2)C2C(=O)NC(=O)NC2=O)C(=O)N1
- TGI [1]: > 100 µM
- TGI [2]: > 100 µM
- TGI [3]: > 100 µM
- TGI [4]: > 100 µM
- TGI [5]: > 100 µM
- TGI [6]: > 100 µM

SMILES: CC(C)N=C(NC#N)NS(=O)(=O)c1cnccc1Nc1ccc(Cl)cc1
- TGI [1]: > 100 µM
- TGI [2]: > 100 µM
- TGI [3]: > 100 µM
- TGI [4]: > 100 µM
- TGI [5]: > 100 µM
- TGI [6]: > 100 µM

SMILES: CC(C)[Si](OC1=C(C(=O)N(C)c2ccccc2Cl)CCC1)(C(C)C)C(C)C
- TGI [1]: 28.6 µM
- TGI [2]: 29 µM
- TGI [3]: 31.1 µM
- TGI [4]: 38.1 µM
- TGI [5]: 31 µM
- TGI [6]: 21.6 µM

SMILES: COC(=O)NN=C(c1ccc(Cl)cc1)c1ccc(Cl)cc1
- TGI [1]: > 100 µM
- TGI [2]: > 100 µM
- TGI [3]: > 100 µM
- TGI [7]: > 100 µM
- TGI [4]: > 100 µM
- TGI [5]: > 100 µM
- TGI [6]: > 100 µM

SMILES: CCCN(CCCCN1C(=O)c2ccccc2C1=O)CC1COc2ccccc2O1 (centres undefined)
- TGI [1]: > 100 µM
- TGI [2]: > 100 µM
- TGI [3]: > 100 µM
- TGI [7]: 77.6 µM
- TGI [4]: > 100 µM
- TGI [5]: > 100 µM
- TGI [6]: > 100 µM

SMILES: COc1ccc2c(c1)nc1n2C(c2c(F)cccc2Cl)SC1 (centres undefined)
- TGI [2]: > 100 µM
- TGI [3]: > 100 µM
- TGI [7]: > 36.4 µM
- TGI [4]: > 100 µM
- TGI [5]: 51 µM
- TGI [6]: > 100 µM

SMILES: O=C(/C=C(\Nc1ccccc1O)c1ccccc1)C(=O)NC12CC3CC(CC(C3)C1)C2
- TGI [1]: > 10 µM
- TGI [2]: 5.87 µM
- TGI [3]: > 10 µM
- TGI [7]: > 10 µM
- TGI [4]: > 10 µM
- TGI [5]: > 10 µM
- TGI [6]: > 10 µM

SMILES: COc1ccc(-n2c(C)nc3ccc(NC4OCC(O)C(O)C4O)cc3c2=O)cc1 (centres undefined)
- TGI [1]: 72 µM and 55 µM
- TGI [2]: 68.5 µM and 80.2 µM
- TGI [3]: > 100 µM
- TGI [7]: 68.4 µM and 60.4 µM
- TGI [4]: > 100 µM
- TGI [5]: 94.6 µM and 82.3 µM
- TGI [6]: > 100 µM

SMILES: O=C(CCc1ccc(O)c(O)c1)NCCc1cc(OCc2ccccc2)cc(OCc2ccccc2)c1
- TGI [1]: 4.62 µM
- TGI [2]: 77.8 µM
- TGI [3]: 29.3 µM
- TGI [7]: 7.18 µM
- TGI [5]: 43.4 µM
- TGI [6]: 30.1 µM

SMILES: COc1ccc(C2=NN(c3ccccc3)C(c3cc4cc(Br)ccc4nc3Cl)C2)cc1 (centres undefined)
- TGI [1]: > 25 µM
- TGI [2]: > 25 µM
- TGI [3]: > 25 µM
- TGI [7]: > 25 µM
- TGI [4]: > 25 µM
- TGI [5]: > 25 µM
- TGI [6]: > 25 µM

SMILES: CCCC(=O)OC[n+]1cccc(-c2c(COC(=O)NC(C)C)c(COC(=O)NC(C)C)c3n2CCC3)c1
- TGI [1]: 71.8 µM
- TGI [2]: > 100 µM
- TGI [3]: > 100 µM
- TGI [7]: > 100 µM
- TGI [4]: > 100 µM
- TGI [5]: > 100 µM
- TGI [6]: > 100 µM

— PubChem BioAssay (NCI)
